These are literature values, as cited in patent publication US20180110888A1, “COMBINATIONS FOR THE TREATMENT OF CANCER” (BAYER PHARMA AKTIENGESELLSCHAFT, priority 2012, published 2018).

SMILES strings stand for the structures.

The conditions of data set [1]: single dose 250 kBq per kg body weight.
Data set [2] concerns bone metastases.
In data set [3] the test system is CRPC (Castration Resistant Prostate Cancer) and bone metastases.
[4] abbreviates: phase 2 studies, patients with CRPC and bone metastases.

Turning to `[Cl][223Ra][Cl]` [radium-223, Radium-223 dichloride], in data set [1], the “cases of grade 3 neutropenia” value is listed as 1/5; the observed adverse reactions entry was “diarrhea and reversible myelosuppression”. In addition, the safety profile result in data set [2] (phase 1 and 2 studies, patients with bone metastases) was “minimal myelotoxicity”. For the same compound, in data set [2] (setting [4]), the “effect on disease-related biomarkers (bone ALP, PSA)” value is “improves disease-related biomarkers” and the effect on pain entry is on record as “reduces pain”. In addition, the “reduction in risk of death compared with placebo” value in data set [3] (overall survival, patients with CRPC and bone metastases) was 30.5%. For the same compound, in data set [3] (patients with CRPC and bone metastases), the “median survival longer than placebo by” value was 2.8 months. The “time to first skeletal-related event” value in data set [3] (versus placebo) was “significantly prolonged”.

Consider `C[C@]12CC[C@H](O)CC1=CC[C@@H]1[C@@H]2CC[C@]2(C)C(c3cccnc3)=CC[C@@H]12` [abiraterone], for which, where the note is “in vivo”, the excreted by feces is on record as ~88%, the excreted by urine is ~5% and the terminal half life was 12 ± 5 h. Moreover, the “effect of administration with food” value (oral administration with food) is listed as “increases absorption”.
